Assay [1] concerns the target T1, AR (Homo sapiens, UniProt P10275).
T1 construct: expressed in transfected cells; host or cells: CV1 cells
T1 sequence (P10275 1-920): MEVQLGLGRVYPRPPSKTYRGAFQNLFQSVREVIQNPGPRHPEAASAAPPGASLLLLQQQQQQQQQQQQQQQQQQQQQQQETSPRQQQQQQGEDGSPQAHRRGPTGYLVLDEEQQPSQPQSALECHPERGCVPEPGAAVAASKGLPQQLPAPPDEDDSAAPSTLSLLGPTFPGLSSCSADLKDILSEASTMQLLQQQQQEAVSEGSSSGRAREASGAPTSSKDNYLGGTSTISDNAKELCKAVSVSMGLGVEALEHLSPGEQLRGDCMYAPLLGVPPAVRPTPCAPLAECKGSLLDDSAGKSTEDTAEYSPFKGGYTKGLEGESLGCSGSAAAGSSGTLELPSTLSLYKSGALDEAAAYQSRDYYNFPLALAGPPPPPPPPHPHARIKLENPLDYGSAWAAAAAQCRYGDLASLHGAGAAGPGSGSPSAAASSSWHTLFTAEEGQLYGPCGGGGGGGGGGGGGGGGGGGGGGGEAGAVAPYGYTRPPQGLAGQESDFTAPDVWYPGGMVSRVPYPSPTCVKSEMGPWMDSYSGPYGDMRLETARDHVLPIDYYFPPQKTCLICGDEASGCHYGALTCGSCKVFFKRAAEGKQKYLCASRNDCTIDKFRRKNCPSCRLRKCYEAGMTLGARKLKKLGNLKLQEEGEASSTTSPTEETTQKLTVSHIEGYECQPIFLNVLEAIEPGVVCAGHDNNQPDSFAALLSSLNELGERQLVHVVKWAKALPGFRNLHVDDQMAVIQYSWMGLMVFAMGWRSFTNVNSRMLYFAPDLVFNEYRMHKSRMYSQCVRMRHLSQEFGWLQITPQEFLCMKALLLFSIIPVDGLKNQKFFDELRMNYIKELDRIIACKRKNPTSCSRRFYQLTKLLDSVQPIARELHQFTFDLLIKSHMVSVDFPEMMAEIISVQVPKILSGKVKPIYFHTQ
As to the kind of experiment: Reporter gene assay, AR transcriptional (MMTV-Luc) in CV1 cells. The assay is classed as cell-based. To be noted: pcDNA-AR + MMTV-Luc, 0.1 nM R1881 plus test compound, 24 hrs, read-out: B1 = AR transcriptional IC50 (μM) in CV1 cells. How it is done: Reporter Gene Assay (IC50 determination, Table 2, B1-B3). CV1 cells were seeded into 96-well cell culture plates and transfected with Lipofectin. For AR transcriptional assays, the DNA mixture consisted of pcDNA-AR, MMTV-Luc (androgen responsive reporter gene), and Renilla-Luc (for assessing transfection efficiency and toxicity). Following overnight incubation, cells were induced with hormone (0.1 nM R1881 (synthetic AR agonist) plus increasing concentrations of test compound) for 24 hrs. Cells were lysed and luciferase activity was quantified using Dual Luciferase Reagent (DLR). IC50 determination was assessed using GraphPad Prism software.
On the technique in general: In a reporter assay the amount or activity of a reporter protein is the signal.

The target in assay [2] is T2, AR (Homo sapiens, UniProt P10275, T878A).
T2 construct: endogenous in cells; host or cells: LNCaP cells
T2 sequence (P10275 1-920 T878A): T1 sequence (P10275 1-920) with T878A
As to the kind of experiment: In Cell Western AR degradation assay in LNCaP cells. The assay is classed as cell-based. To be noted: 18 hrs, greater than 50% degradation at 10 μM (method says 20 μM). The method, then: In Cell Western (AR degradation Assay, Table 2, B10). LNCaP cells were plated in 96-well clear bottom black plates (20K cells/well) in RPMI supplemented with 8% CFS. Following 48 hr incubation, cells were treated with hormone (20 μM test compound) for 18 hrs. Cells were fixed with formaldehyde (3.7%) and permeabilized using PBS (0.1% TRITON X-100). Cells were incubated with anti-AR antibody (N20, 1:2000), washed with PBS (0.1% Tween), and stained with 2nd antibody (Biotium CF770 goat anti-rabbit, 1:2000). AR protein expression was assessed using the LI-COR Odyssey imaging system. DRAQ5 (DNA stain, 1:10,000, Thermo Scientific) was used to normalize AR protein expression.
For B4-B7, scoring system is based on the relative AR target gene agonist/antagonist activity of test compounds when compared to benchmark compounds enzalutamide or bicalutamide. […] The lack of agonist activity is desirable for therapies intended to treat CRPC. For B4 and B6, a score of 1 indicates less agonism (highly desired activity) than benchmark compound enzalutamide, a score of 2 indicates equal agonism to enzalutamide (desirable), a score of 3 indicates agonism between enzalutamide and bicalutamide (less desirable activity), a score of 4 indicates equal agonism to bicalutamide (liability), and a score of 5 indicates higher agonism than bicalutamide (liability). For B5 and B7 a score of 1 indicates higher antagonist efficacy (highly desired activity) than benchmark compound enzalutamide, a score of 2 indicates equal antagonist efficacy to enzalutamide (desirable), a score of 3 indicates antagonist efficacy between enzalutamide and bicalutamide (less desirable activity), a score of 4 indicates antagonist efficacy equal to bicalutamide (liability), and a score of 5 indicates antagonist efficacy worse than bicalutamide (liability) For B9, Compounds that degrade AR (greater than 50% degradation at 10 μM) are indicated.

As a reminder, the IC50 is the concentration needed to halve the response being measured.

Where a chain is given by its changes, count along the chain named.

As for `CC1(C)CC(=O)C2=C(C1)Nc1ccc3ncccc3c1C2c1sccc1Br` (centres unmarked) [Compound A62], at AR [1], the IC50 was above 10 µM. In addition, the “B9 = AR degradation in LNCaP cells (In-Cell Western)” value (from here on “B9 = AR degradation in LNCaP cells”) at AR [2] is listed as “Degrader (Compounds that degrade AR (greater than 50% degradation at 10 μM) are indicated)”.
On the same counts, the results for `CC1(C)CC(=O)C2=C(C1)Nc1ccc3ncccc3c1C2c1ccc(C#N)c(F)c1` (centres unmarked) [Compound A72] are 7.7 µM and “Degrader (Compounds that degrade AR (greater than 50% degradation at 10 μM) are indicated)”.
On the same counts, the results for `Cc1ccsc1C1C2=C(CC(C)(C)CC2=O)Nc2ccc3ncccc3c21` (centres unmarked) [Compound A114] are 1.1 µM and “Degrader (Compounds that degrade AR (greater than 50% degradation at 10 μM) are indicated)”.
On the same counts, the results for `CC1(C)CC(=O)C2=C(C1)Nc1ccc3ncccc3c1C2c1ccc(Cl)nc1` (centres unmarked) [Compound A71] are 6.9 µM and “Degrader (Compounds that degrade AR (greater than 50% degradation at 10 μM) are indicated)”.
Turning to `CC1(C)CC(=O)C2=C(C1)Nc1ccc3ncncc3c1C2c1ccc(Cl)s1` (racemic) [Compound A101, (±)-12-(5-chlorothiophen-2-yl)-9,9-dimethyl-8,9,10,12-tetrahydropyrimido[5,4-a]acridin-11(7H)-one], the IC50 at AR [1] came out at 0.8 µM. Moreover, on AR [2], the “B9 = AR degradation in LNCaP cells” value was “Degrader (Compounds that degrade AR (greater than 50% degradation at 10 μM) are indicated)”.
For the molecule `CC1(C)CC(=O)C2=C(C1)Nc1ccc3ncccc3c1C2c1nccs1` (centres unmarked) [Compound A67], the IC50 at AR [1] was above 10 µM. Besides, the “B9 = AR degradation in LNCaP cells” value on AR [2] is recorded as “Degrader (Compounds that degrade AR (greater than 50% degradation at 10 μM) are indicated)”.
On the same counts, the results for `CC1(C)CC(=O)C2=C(C1)Nc1ccc3ncccc3c1C2c1csc([N+](=O)[O-])c1` (centres unmarked) [Compound A60] are 1.7 µM and “Degrader (Compounds that degrade AR (greater than 50% degradation at 10 μM) are indicated)”.
On the same counts, the results for `CC1(C)CC(=O)C2=C(C1)Nc1ccc3ccccc3c1C2c1ccc([N+](=O)[O-])cc1` (centres unmarked) [Compound A51, 9,9-dimethyl-12-(4-nitrophenyl)-8,9,10,12-tetrahydrobenzo[a]acridin-11(7H)-one] are 1.2 µM and “Degrader (Compounds that degrade AR (greater than 50% degradation at 10 μM) are indicated)”.
`CC1(C)CC(=O)C2=C(C1)Nc1ccc3c(c1C2c1ccc(Br)s1)OCO3` (centres unmarked) [Compound A111]: at AR [1], the IC50 is 1.4 µM. For the same molecule, the “B9 = AR degradation in LNCaP cells” value at AR [2] is “Degrader (Compounds that degrade AR (greater than 50% degradation at 10 μM) are indicated)”.
On the same counts, the results for `CC1(C)CC(=O)C2=C(C1)Nc1cc(N3CCCC3)ccc1C2c1ccc(F)c(F)c1` (racemic) [Compound A90, (±)-9-(3,4-difluorophenyl)-3,3-dimethyl-6-(pyrrolidin-1-yl)-3,4,9,10-tetrahydroacridin-1(2H)-one] are above 10 µM and “Degrader (Compounds that degrade AR (greater than 50% degradation at 10 μM) are indicated)”.
In the case of `Cc1ccc(C2C3=C(CC(C)(C)CC3=O)Nc3ccc4ncccc4c32)s1` (racemic) [Compound A103, (±)-9,9-dimethyl-12-(5-methylthiophen-2-yl)-8,9,10,12-tetrahydrobenzo[b][4,7]phenanthrolin-11(7H)-one], the concentration for half-maximal inhibition (IC50) on AR [1] was 0.3 µM. In addition, the “B9 = AR degradation in LNCaP cells” value at AR [2] is listed as “Degrader (Compounds that degrade AR (greater than 50% degradation at 10 μM) are indicated)”.
On the same counts, the results for `CC1(C)CC(=O)C2=C(C1)Nc1ccc3nccnc3c1C2c1ccc(Br)s1` (racemic) [Compound A100, (±)-12-(5-bromothiophen-2-yl)-9,9-dimethyl-8,9,10,12-tetrahydropyrazino[2,3-a]acridin-11(7H)-one] are 0.5 µM and “Degrader (Compounds that degrade AR (greater than 50% degradation at 10 μM) are indicated)”.
Regarding `Cn1ncc2ccc3c(c21)C(c1ccc(F)c(F)c1)C1=C(CC(C)(C)CC1=O)N3` (centres unmarked) [Compound A78], on AR [1], the IC50 is above 10 µM. In addition, the “B9 = AR degradation in LNCaP cells” value on AR [2] is “Degrader (Compounds that degrade AR (greater than 50% degradation at 10 μM) are indicated)”.
On the same counts, the results for `CC1(C)CC(=O)C2=C(C1)Nc1ccc3ncncc3c1C2c1ccc(Br)s1` (racemic) [Compound A102, (±)-12-(5-bromothiophen-2-yl)-9,9-dimethyl-8,9,10,12-tetrahydropyrimido[5,4-a]acridin-11(7H)-one] are 0.4 µM and “Degrader (Compounds that degrade AR (greater than 50% degradation at 10 μM) are indicated)”.
On the same counts, the results for `CC1(C)CC(=O)C2=C(C1)Nc1ccc3cn[nH]c3c1C2c1ccc(Br)s1` (centres unmarked) [Compound A110] are above 10 µM and “Degrader (Compounds that degrade AR (greater than 50% degradation at 10 μM) are indicated)”.
On the same counts, the results for `Cc1nc2ccc3c(c2nc1C)C(c1ccc(F)c(F)c1)C1=C(CC(C)(C)CC1=O)N3` (racemic) [Compound A84, (±)-12-(3,4-difluorophenyl)-2,3,9,9-tetramethyl-8,9,10,12-tetrahydropyrazino[2,3-a]acridin-11(7H)-one] are 55 µM and “Degrader (Compounds that degrade AR (greater than 50% degradation at 10 μM) are indicated)”.

For the origin of these results see patent publication US20180303807A1, “ANDROGEN RECEPTOR LIGANDS” (DUKE UNIVERSITY, priority 2015, published 2018).
